This test addresses T1, human M1 receptor (hCHRM1) (Homo sapiens, UniProt P11229).
T1 construct: expressed in transfected cells
T1 sequence (P11229 1-460): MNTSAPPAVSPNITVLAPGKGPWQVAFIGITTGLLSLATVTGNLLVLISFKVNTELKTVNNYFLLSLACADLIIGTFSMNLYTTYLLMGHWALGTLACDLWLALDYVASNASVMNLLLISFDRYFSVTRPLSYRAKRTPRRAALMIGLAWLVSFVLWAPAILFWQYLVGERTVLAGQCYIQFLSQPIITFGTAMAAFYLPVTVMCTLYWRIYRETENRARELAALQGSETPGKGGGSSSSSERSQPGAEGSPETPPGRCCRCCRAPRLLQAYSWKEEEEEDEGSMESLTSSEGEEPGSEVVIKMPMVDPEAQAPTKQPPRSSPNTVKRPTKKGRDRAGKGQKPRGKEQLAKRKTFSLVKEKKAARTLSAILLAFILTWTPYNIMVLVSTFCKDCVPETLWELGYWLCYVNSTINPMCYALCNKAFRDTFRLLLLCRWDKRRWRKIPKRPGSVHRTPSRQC
In words: Measurement of M1 receptor positive allosteric modulator (M1PAM) activity, calcium fluorescence (FLIPRtetra) with acetylcholine at EC20. Type of test: cell-based. The following applies: for activity (%) at 10 μM: 10 μM test compound, 100% = acetylcholine 1 μM, 0% = DMSO, acetylcholine at EC20; for EC50: inflection point of concentration-dependent curve, CHO-K1 cells expressing hCHRM1, acetylcholine at EC20 (final 0.6-0.8 nM), read-out: IP value. In outline:
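CHO-K1 cells stably expressing hCHRM1, Fluo-4 AM loaded; compound added with acetylcholine at EC20 (final 0.6-0.8 nM), fluorescence read 1 min. Activity normalised to 1 μM acetylcholine (100%) and DMSO (0%); IP values taken as inflection point of the concentration-response curve.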

With `O=C1c2cc(Cc3ccc(-n4cccn4)cc3)c(C(F)(F)F)c(Cl)c2CN1[C@H]1CCC[C@@H]1O` (racemic) [Example 88, rac-4-chloro-2-(trans-2-hydroxycyclopentyl)-6-(4-(1H-pyrazol-1-yl)benzyl)-5-(trifluoromethyl)isoindolin-1-one], the “activity (%) at 10 μM” value stood at 98% and the EC50 was 85 nM.
Take `COc1c(Cc2ccc(-n3cccn3)cc2)cc2c(c1Cl)CN([C@H]1CCC[C@@H]1O)C2=O` (racemic) [Example 92, rac-4-chloro-2-(trans-2-hydroxycyclopentyl)-5-methoxy-6-(4-(1H-pyrazol-1-yl)benzyl)isoindolin-1-one]: the “activity (%) at 10 μM” value came out at 91% and the EC50 stood at 60 nM.
Consider `Cc1cc(-c2ccc(Cc3cc4c(cc3C)CN([C@H]3CCCC[C@@H]3O)C4=O)cc2)ccn1` (racemic) [Example 99, rac-2-(trans-2-hydroxycyclohexyl)-5-methyl-6-(4-(2-methylpyridin-4-yl)benzyl)isoindolin-1-one], for which the “activity (%) at 10 μM” value is given as 103% and the EC50 was 16 nM.
As for `Cc1cc2c(cc1Cc1ccc(-c3cn(C)nc3C)cc1)C(=O)N([C@H]1CCC[C@@H]1O)C2` (racemic) [Example 55, rac-6-(4-(1,3-dimethyl-1H-pyrazol-4-yl)benzyl)-2-(trans-2-hydroxycyclopentyl)-5-methylisoindolin-1-one], the “activity (%) at 10 μM” value stood at 101% and the EC50 turned out to be 98 nM.
The matching figures for `Cc1c(Cc2ccc(-c3cnn(C)c3)cc2)cc2c(c1C)CN([C@H]1CCC[C@@H]1O)C2=O` (racemic) [Example 69, rac-2-(trans-2-hydroxycyclopentyl)-4,5-dimethyl-6-(4-(1-methyl-1H-pyrazol-4-yl)benzyl)isoindolin-1-one]: 95% and 13 nM.
Turning to `CCc1cc2c(cc1Cc1ccc(-c3cn(C)nn3)cc1)C(=O)N([C@H]1CCC[C@@H]1O)C2` (racemic) [Example 106, rac-5-ethyl-2-(trans-2-hydroxycyclopentyl)-6-(4-(1-methyl-1H-1,2,3-triazol-4-yl)benzyl)isoindolin-1-one], the “activity (%) at 10 μM” value is recorded as 92% and the EC50 worked out at 11 nM.
In the case of `Cc1cc2c(cc1Cc1ccc(-c3cnn(C)c3)cc1)C(=O)N([C@H]1CCC[C@@H]1O)C2` (racemic) [Example 67, rac-2-(trans-2-hydroxycyclopentyl)-5-methyl-6-(4-(1-methyl-1H-pyrazol-4-yl)benzyl)isoindolin-1-one], the “activity (%) at 10 μM” value came to 93% and the EC50 worked out at 26 nM.
Regarding `Cc1c(Cc2ccc(-n3cccn3)cc2)cc2c(c1Cl)CN([C@H]1CCC[C@@H]1O)C2=O` (racemic) [Example 102, rac-4-chloro-2-(trans-2-hydroxycyclopentyl)-5-methyl-6-(4-(1H-pyrazol-1-yl)benzyl)isoindolin-1-one], the “activity (%) at 10 μM” value is 91% and the EC50 was 13 nM.
For `Cc1c(Cc2ccc(-c3ccn(C)n3)cc2F)cc2c(c1C)CN([C@H]1CCC[C@@H]1O)C2=O` (racemic) [Example 71, rac-6-(2-fluoro-4-(1-methyl-1H-pyrazol-3-yl)benzyl)-2-(trans-2-hydroxycyclopentyl)-4,5-dimethylisoindolin-1-one], the “activity (%) at 10 μM” value stood at 100% and the EC50 was 56 nM.
Take `O=C1c2cc(Cc3ccc(-n4cccn4)cc3)c(Cl)cc2CN1[C@H]1CCCC[C@@H]1O` (racemic) [Example 2, rac-5-chloro-2-(trans-2-hydroxycyclohexyl)-6-(4-(1H-pyrazol-1-yl)benzyl)isoindolin-1-one]: the “activity (%) at 10 μM” value amounted to 109% and the EC50 amounted to 86 nM.
The matching figures for `Cc1c(Cc2ccc(-c3ccn(C)n3)cc2)cc2c(c1F)CN([C@H]1COCC[C@@H]1O)C2=O` [Example 140, 4-fluoro-2-[(3S,4S)-4-hydroxytetrahydro-2H-pyran-3-yl]-5-methyl-6-[4-(1-methyl-1H-pyrazol-3-yl)benzyl]-2,3-dihydro-1H-isoindol-1-one]: 93% and 2 nM.
The matching figures for `Cc1cc2c(cc1Cc1ccc(-c3cn(C)nc3C)nc1)C(=O)N([C@H]1CCC[C@@H]1O)C2` (racemic) [Example 40, rac-6-((6-(1,3-dimethyl-1H-pyrazol-4-yl)pyridin-3-yl)methyl)-2-(trans-2-hydroxycyclopentyl)-5-methylisoindolin-1-one]: 97% and 37 nM.
On to `CCOc1ccc(Cc2cc3c(c(C)c2C)CN([C@H]2COCC[C@@H]2O)C3=O)cc1` [Example 142, 6-(4-ethoxybenzyl)-2-[(3S,4S)-4-hydroxytetrahydro-2H-pyran-3-yl]-4,5-dimethyl-2,3-dihydro-1H-isoinol-1-one], for which the “activity (%) at 10 μM” value is recorded as 106% and the EC50 was 31 nM.
The matching figures for `Cc1c(Cc2ccc(-n3cccn3)cc2)cc2c(c1C)CN(CC1CCCO1)C2=O` (centres unmarked) [Example 80, 4,5-dimethyl-6-(4-(1H-pyrazol-1-yl)benzyl)-2-(tetrahydrofuran-2-ylmethyl)isoindolin-1-one]: 90% and 14 nM.
Regarding `CCc1cc2c(cc1Cc1ccc(-n3cccn3)cc1F)C(=O)N([C@H]1COCC[C@@H]1O)C2` [Example 144, 5-ethyl-6-[2-fluoro-4-(1H-pyrazol-1-yl)benzyl]-2-[(3S,4S)-4-hydroxytetrahydro-2H-pyran-3-yl]-2,3-dihydro-1H-isoindol-1-one], the “activity (%) at 10 μM” value amounted to 97% and the EC50 came out at 23 nM.
As for `Cc1c(Cc2ccc(-n3cccn3)cc2)cc2c(c1F)CN([C@H]1CCC[C@@H]1O)C2=O` [Example 107, 4-fluoro-2-((1S,2S)-2-hydroxycyclopentyl)-5-methyl-6-(4-(1H-pyrazol-1-yl)benzyl)isoindolin-1-one], the “activity (%) at 10 μM” value turned out to be 102% and the EC50 came out at 14 nM.
On the same counts, the results for `COc1ccc(Cc2cc3c(c(F)c2OC)CN([C@H]2CCCC[C@@H]2O)C3=O)cc1` [Example 161, 4-fluoro-2-((1S,2S)-2-hydroxycyclohexyl)-5-methoxy-6-(4-methoxybenzyl)isoindol-1-one] are 94% and 32 nM.
As to `CCc1cc2c(cc1Cc1ccc(-c3ccn(C)n3)cc1)C(=O)N([C@H]1CCC[C@@H]1O)C2` [Example 120, 5-ethyl-2-((1S,2S)-2-hydroxycyclopentyl)-6-(4-(1-methyl-1H-pyrazol-3-yl)benzyl)isoindolin-1-one], the “activity (%) at 10 μM” value was 93% and the EC50 stood at 25 nM.
The matching figures for `COc1ccc(Cc2cc3c(c(C)c2C)CN([C@H]2COCC[C@@H]2O)C3=O)cc1F` [Example 158, 6-(3-fluoro-4-methoxybenzyl)-2-[(3S,4S)-4-hydroxytetrahydro-2H-pyran-3-yl]-4,5-dimethyl-2,3-dihydro-1H-isoindol-1-one]: 111% and 28 nM.
On to `Cc1nn(C)cc1-c1ccc(Cc2cc3c(c(C)c2C)CN([C@H]2CCCC[C@@H]2O)C3=O)c(F)c1` (racemic) [Example 94, rac-6-(4-(1,3-dimethyl-1H-pyrazol-4-yl)-2-fluorobenzyl)-2-(trans-2-hydroxycyclohexyl)-4,5-dimethylisoindolin-1-one], for which the “activity (%) at 10 μM” value is reported as 92% and the EC50 was 9.5 nM.
As for `Cc1c(Cc2ccc(C#N)cc2)cc2c(c1C)CN([C@H]1COCC[C@@H]1O)C2=O` [Example 156, 4-({2-[(3S,4S)-4-hydroxytetrahydro-2H-pyran-3-yl]-6,7-dimethyl-3-oxo-2,3-dihydro-1H-isoindol-5-yl}methyl)benzonitrile], the “activity (%) at 10 μM” value turned out to be 80% and the EC50 stood at 4.3 nM.
The matching figures for `CCc1cc2c(cc1Cc1ccc(-n3cccn3)cc1)C(=O)N([C@H]1COCC[C@@H]1O)C2` [Example 128, 5-ethyl-2-[(3S,4S)-4-hydroxytetrahydro-2H-pyran-3-yl]-6-[4-(1H-pyrazol-1-yl)benzyl]-2,3-dihydro-1H-isoindol-1-one]: 97% and 5 nM.
As for `Cc1cc2c(cc1Cc1ccc(-n3cccn3)cc1)C(=O)N(C(C)C(C)(C)O)C2` (centres unmarked) [Example 133, 2-(3-hydroxy-3-methylbutan-2-yl)-5-methyl-6-(4-(1H-pyrazol-1-yl)benzyl)isoindolin-1-one], the “activity (%) at 10 μM” value was 87% and the EC50 stood at 35 nM.
Turning to `Cc1c(Cc2ccc(-n3cccn3)cc2)cc2c(c1Cl)CN([C@H]1COCC[C@@H]1O)C2=O` [Example 130, 4-chloro-2-[(3S,4S)-4-hydroxytetrahydro-2H-pyran-3-yl]-5-methyl-6-[4-(1H-pyrazol-1-yl)benzyl]-2,3-dihydro-1H-isoindol-1-one], the “activity (%) at 10 μM” value was found to be 94% and the EC50 was determined as 2.2 nM.
`Cc1c(Cc2ccc(OC(F)F)cc2)cc2c(c1C)CN([C@H]1COCC[C@@H]1O)C2=O` [Example 22, 1,5-anhydro-2,4-dideoxy-2-(6-(4-(difluoromethoxy)benzyl)-4,5-dimethyl-1-oxo-1,3-dihydro-2H-isoindol-2-yl)-L-threo-pentitol]: the “activity (%) at 10 μM” value came out at 110% and the EC50 is 32 nM.

For the origin of these results see patent US9315458B2, “Nitrogen-containing heterocyclic compound” (Takeda Pharmaceutical Company Limited, priority 2014, dated 2016).
